Experimental data from patent US20080119530A1, “Method for treatment and prevention of ultraviolet light induced skin pathologies” (priority 2006, published 2008).

Columns and labels:
skin = type: in vivo, mouse
Excerpt: Real-Time PCR. Selected changes in gene expression were validated using real-time PCR. Sequences supplied by Affymetrix from the probe set of Il1 b (probe: 1449399_a_at), Mmp9 (probe: 1416298_at) and Thbs1 (probe: 1421811_at) were scanned for unique sequences using a stringent blast search (www.ncbi.nlm.nih.gov/BLAST). Sequences spanning exons were selected preferentially for probes and primers for prepared using Assays-by-Design (Applied Biosystems, Foster City, Calif.). Real-time PCR was performed using TaqMan One-Step RT-PCR Master Mix Reagents (Applied Biosystems, Foster City, Calif.) according to the manufacturer's instructions on an ABI Prism 7000 (Applied Biosystems, Foster City, Calif.). The relative efficiency of amplification of the selected gene versus control (GAPDH or actin) was plotted to ensure the slope of total RNA versus ΔCT was less than 0.05. The 2^−ΔΔC^T was used to determine fold-change differences between samples^25.

Erbb2 = target: T1, Erbb2 (Mus musculus, UniProt P70424); assay: UV-induced activation (phosphorylation) of Erbb2; type: cell-based
T1 construct: endogenous in cells; host or cells: primary newborn mouse keratinocytes; also mouse epidermis/skin extracts
T1 sequence (P70424 23-1256): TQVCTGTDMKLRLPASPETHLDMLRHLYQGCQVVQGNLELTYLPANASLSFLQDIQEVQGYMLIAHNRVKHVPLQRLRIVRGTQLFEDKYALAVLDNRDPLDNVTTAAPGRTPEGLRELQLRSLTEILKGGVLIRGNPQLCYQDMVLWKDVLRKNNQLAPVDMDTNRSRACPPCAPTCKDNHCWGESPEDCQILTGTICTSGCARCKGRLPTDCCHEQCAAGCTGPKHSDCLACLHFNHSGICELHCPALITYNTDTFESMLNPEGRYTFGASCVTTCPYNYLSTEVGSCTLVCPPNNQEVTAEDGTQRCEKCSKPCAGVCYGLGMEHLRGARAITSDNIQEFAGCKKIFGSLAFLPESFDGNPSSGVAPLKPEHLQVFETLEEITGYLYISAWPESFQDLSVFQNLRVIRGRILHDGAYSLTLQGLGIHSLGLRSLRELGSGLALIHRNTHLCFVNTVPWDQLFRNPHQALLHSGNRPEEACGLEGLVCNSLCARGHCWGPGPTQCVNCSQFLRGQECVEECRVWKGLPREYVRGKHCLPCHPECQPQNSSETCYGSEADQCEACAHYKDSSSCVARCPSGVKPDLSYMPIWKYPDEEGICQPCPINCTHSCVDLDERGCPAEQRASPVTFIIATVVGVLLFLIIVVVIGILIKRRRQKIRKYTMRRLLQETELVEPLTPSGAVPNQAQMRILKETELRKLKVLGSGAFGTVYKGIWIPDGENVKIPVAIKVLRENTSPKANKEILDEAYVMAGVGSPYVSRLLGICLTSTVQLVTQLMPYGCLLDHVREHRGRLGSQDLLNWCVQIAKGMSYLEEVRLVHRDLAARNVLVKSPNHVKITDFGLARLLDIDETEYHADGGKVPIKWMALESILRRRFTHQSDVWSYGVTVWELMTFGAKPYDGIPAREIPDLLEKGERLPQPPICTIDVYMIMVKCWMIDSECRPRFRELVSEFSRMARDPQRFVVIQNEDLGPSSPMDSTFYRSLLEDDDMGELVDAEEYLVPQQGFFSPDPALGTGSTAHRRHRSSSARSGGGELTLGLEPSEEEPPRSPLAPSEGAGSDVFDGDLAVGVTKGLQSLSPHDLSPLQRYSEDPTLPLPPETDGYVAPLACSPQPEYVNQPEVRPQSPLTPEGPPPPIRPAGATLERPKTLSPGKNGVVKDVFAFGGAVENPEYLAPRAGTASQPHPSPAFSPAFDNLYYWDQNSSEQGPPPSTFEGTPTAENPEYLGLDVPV
Excerpt: For some experiments, the epidermis was separated from the skin by the heat shock method before homogenization. Keratinocytes were lysed in the same buffer. Membranes were immunoblotted with antibodies recognizing Erbb2, phospho-Erbb2 (Tyr^1248), EGFR, phospho-EGFR (Tyr^992), phospho-EGFR (Tyr^1173), phosphotyrosine, and Tall (Calbiochem, San Diego, Calif.). Binding of horseradish peroxidase-conjugated secondary antibodies (Cell Signaling, Beverly, Mass.) was visualized using chemiluminescent reagents (Pierce, Rockford, Ill.) and autoradiography. Densitometry was performed using IDScan software (Scanalytics, Fairfax, Va.).
Several methods were developed to regulate Erbb2 expression and activity both in vitro and in vivo.

[1] = system: p38 kinase, ERK1/2 and JNK1/2; assay: MAPK activity in keratinocytes; type: cell-based, mouse; conditions: after sham UV
Excerpt: Inactivation of Cdc25a can occur through activation of a member of the p38 MAPK signaling pathway, which is also activated by Erbb2, but this regulation of Cdc25a remains controversial (24). […] Other mechanisms for the inactivation of Cdc25a, including sequestration in the cytoplasm and phosphorylation by p38 kinase following UV exposure or osmotic shock, have been reported (25).

Tg.AC mice = assay: UV-induced skin tumorigenesis in v-rasHa transgenic Tg.AC mice; type: in vivo, mouse
Excerpt: Animals. Homozygous v-rasHa transgenic mice on an FVB/N background were used in in vivo experiments. To obtain keratinocytes with genetic ablation of Erbb2, loxP sites were inserted flanking exon 2 of Erbb2 such that splicing from exon1 to downstream introns upon Cre recombinase expression creates a frameshift mutation. Mice were maintained in our animal facility and provided with Purina lab chow (Nestle Purina PetCare, St. Louis, Mo.) and water ad libitum. The dorsal skin was clipped one day before treatment using electric clippers (Wahl, Sterling, II) and shaved on the day of treatment with a Remington Microscreen shaver (Madison, N.C.). […] The Ultraviolet-B TL 40W/12 RS bulbs (Philips, Somerset, N.J.) used emitted approximately 30% UVA, 70% UVB and <1% UVC, with a total output of 470 μW/cm^2, as measured with radiometric photodetector probes (Newport, Irvine, Calif.). For tumor experiments, homozygous Tg.AC mice were treated and exposed twice with an interval of 7 d. Tumor number was counted and tumor volume measured weekly using calipers. Skin-fold thickness was measured using calipers (Mitutoyo, Aurora, Ill.) to lightly pinch the dorsal skin. All animal procedures were performed in accordance with American Association of Laboratory Animal Care guidelines and approved by Creighton University's Institutional Animal Care and Use Committee.
Statistical methods. The tumor experiment was analyzed using two-way ANOVA. Statistical significance in other experiments was assessed using two-way ANOVA or Student's t-test with Bonferroni post-test. All experiments, excluding the tumor experiment, were replicated several times and consistent results obtained.
The skin tumorigenesis experiment was performed in v-ras^Ha transgenic Tg.AC mice because of their enhanced sensitivity to UV-induced skin tumorigenesis (13; 52). […] While the vehicle-treated mice continued to accrue tumors throughout the duration of the experiment, the AG825-treated group reached a plateau in tumor number by 7 weeks after the first UV exposure. By the end of the experiment, mean tumor volume was also 70% less in the AG825-treated group when compared to the vehicle control. Representative tumors from each treatment were examined histologically and all were benign squamous papillomas with similar differentiation status.
Upon activation, Erbb2 heterodimerizes with either EGFR or Erbb3 to transduce signals. Support for the hypothesis that Erbb2 increases skin carcinogenesis comes from our investigations of the functions of its dimerization partner EGFR. A tumor study was conducted to assess the role of EGFR in the clonal expansion of transformed cells to form benign tumors in the skin of v-ras^Ha transgenic Tg.AC mice. Inhibition of EGFR with the tyrphostin inhibitor AG1478 decreased the number of tumors that developed by about 50% in UV-exposed v-rasHa transgenic mice. Mean tumor volume was 80% less upon inhibition of EGFR-mediated signaling when compared to, UV-exposed and vehicle-treated controls.

Question: `COc1cc(/C=C(\C#N)C(N)=O)cc(CSc2nc3ccccc3s2)c1O` [AG825] was tested. Which “fold increase in Mmp9 expression” value (skin; 24 h after UV exposure, qPCR) did it give?
Answer: 1.3 fold

Question: And the “Thbs1 expression vs vehicle-treated mice” value (skin; 24 h post-UV, real-time PCR)?
Answer: similar

Question: And the “Il1 b expression: fold greater increase after UV in vehicle-treated compared to AG825-treated samples” value (skin; real-time PCR)?
Answer: 6 fold

Question: What about the “fold higher Thbs1 expression compared to corresponding control” value (skin; sham-irradiated skin, real-time PCR) of the same compound?
Answer: 2 fold

Question: What about the “duration of the inhibition of Erbb2” value (Erbb2) of the same compound?
Answer: less than 24 h

Question: And the “activation of Erbb2 by UV” value (Erbb2; both in vivo and in vitro)?
Answer: blocked

Question: What about the “UV-induced phosphorylation of Erbb2 at Tyr1248” value (Erbb2; cultured keratinocytes) of the same compound?
Answer: inhibited

Question: What about the “p38 kinase, ERK1/2 and JNK1/2 activity” value [1] of the same compound?
Answer: decrease

Question: And the “tumors per mouse by the end of the experiment” value (Tg.AC mice; 4 mg AG825 topically 2 h prior to each of two 10 kJ/m^2 UV exposures 7 d apart)?
Answer: 15

Question: What about the tumor multiplicity decreased (Tg.AC mice; 12 weeks later) of the same compound?
Answer: more than half

Question: And the tumor volume decreased (Tg.AC mice; 12 weeks later)?
Answer: more than half

Question: And the “time by which tumor number reached a plateau” value (Tg.AC mice; after the first UV exposure)?
Answer: ≤ 7 weeks

Question: And the “mean tumor volume less than vehicle control” value (Tg.AC mice; by the end of the experiment)?
Answer: 70%

Question: And the “development of tumors blocked” value (Tg.AC mice; inhibition of Erbb2 prior to UV irradiation, vs vehicle)?
Answer: more than half

Question: And the “UV-induced carcinogenesis (FIG. 6)” value (Tg.AC mice; topical treatment 2 h prior to UV irradiation)?
Answer: suppress
